“Also recorded” adds a separate entry of the source.
Assay: Dynamic PET/CT renal imaging (renogram) after intravenous injection in healthy rats
Assay type: in vivo, Wistar rats
Procedure: Methods for renal imaging: ^11C-PABA was synthesized using cGMP conditions at the JHU PET Center. Four female healthy Wistar rats (250-275 g of bodyweight) were injected with 30.5±10.3 MBq of ^11C-PABA through a tail-vein catheter and a dynamic PET scan was performed (15 frames×20 seconds, 5 frames×1 minute, 10 frames×5 minutes, total of 60 minutes) using the nanoScan PET/CT (Mediso). Subsequently, CT imaging was performed for anatomical co-registration. As a control, the same rats were also injected intravenously with 18.5 MBq of ^99mTc-MAG3 (Cardinal Health) and scanned using planar scintigraphy with the nanoSPECT/CT (Nanoscan). The images were analyzed with VivoQuant 3.0 (Invicro) and regions of interest were drawn using the CT as reference.

[1] = representative healthy rat, FIG. 3

- time after injection at which PET/CT signal localized in the right kidney (FIG. 4A): 220 to 240 s
- signal in the kidneys compared to liver and spleen (at time-to-peak, healthy rats, FIG. 3): 30-40 ×
- background accumulation of the tracer in other organs (in words) (dynamic PET, healthy rats): very low background accumulation
- time-to-peak in time-activity curves (kidneys, dynamic PET after IV injection of 30.5±10.3 MBq, healthy female Wistar rats): 9.5 ± 1.4 min
- cortical phase of renogram [1]: 4.7 to 10 min
- vascular phase of renogram [1]: 0 to 4.7 min
Structure (SMILES): Nc1ccc([11C](=O)O)cc1 [^11C-PABA, [Carboxy-11C] 4-Aminobenzoic acid]
- renal clearance / excretion from kidneys (in words) (dynamic PET after IV injection, healthy rats, FIG. 2): rapid excretion; also recorded: rapid renal clearance; also recorded: rapidly localized in the kidneys

— patent US20220040335A1, “RADIOLABELED PABA AND DERIVATIVES THEREOF FOR USE AS FUNCTIONAL RENAL IMAGING AGENTS” (priority 2018, published 2022)
